Data published in patent publication US12024506B2, “Compounds” (Oxford University Innovation Limited, priority 2018, dated 2024).
“Also recorded” adds a separate entry of the source.

Legend:
Type in all cases: cell-based
[1] = test system: DLD1 cells (ATCC CCL-221); assay: Cell viability assay 1 (CellTiter-Glo), DLD1 cells; conditions: Homo sapiens, DLD-1 cells, 48 h, second value of the cell, read-out: Cell Viability DLD-1 (concentration that decreases cell viability by 50%)
Method in brief: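 DLD1 cells grown in RPMI-1640 with 10% FCS, 2 mM L-glutamine, 37 °C, 5% CO2, plated overnight then exposed to compound (0.5% DMSO) for 48 h. Viability by CellTiter-Glo luminescence; value is concentration reducing viability by 50% from dose-response curves.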

[2] = molecular target: T1, KRASG12D interaction with PI3Kα, PI3Kγ, CRAF RBD, RALGDS RA (Homo sapiens, UniProt P01116, G12D); assay: BRET2 cell assay, KRAS G12D-effector interaction; conditions: HEK293T cells, 5, 10 and 20 μM, 20 h
T1 construct: expressed in transfected cells; host or cells: HEK293T
Description: (§1) The BRET ratio corresponds to the light emitted by the GFP2 acceptor constructs (515 nm±30) upon addition of Coelenterazine 400a divided by the light emitted by the RLuc8 donor constructs (410 nm±80). The normalized BRET ratio is the BRET ratio normalized to the DMSO negative and calculated as follows: (BRETcompound/BRETDMSO)×100, where BRETcompound corresponds to the BRET ratio for the compound-treated cells, BRETDMSO to the DMSO-treated cells. Each experiment was repeated at least three times. Statistical analyses were performed using a one-way ANOVA followed by Dunnett's post-tests (*P<0.05, **P<0.01, ***P<0.001, ****P<0.0001). Where error bars are presented, they correspond to mean values±SD of biological repeats (a-c).
(§2) 650,000 HEK293T were seeded in each well of a 6 well plate. 24 hours later, cells were transfected with an appropriated BRET-based RAS biosensor (i.e. RAS-effector) using Lipofectamine 2000 transfection reagent (Thermo-Fisher). […] The final concentrations in the cells were 0, 5, 10 and 20 µM (therefore the intermediate 10× concentrations were 0, 50, 100 and 200 μM. 10 μL of 10× compounds were added in each well of the 96 well plate to 0, 5, 10 and 20 µM final concentrations (with final 0.2% DMSO each). Quadruplicates were performed for each point. Cells were left for an additional 20 hours at 37° C. before the BRET2 signal reading directly after addition of Coelenterazine 400a substrate (10 µM final) to cells (Cayman Chemicals, cat #16157). BRET2 reading was carried out on an Envision instrument (2103 Multilabel Reader, PerkinElmer) with the BRET2 Dual Emission optical module (515 nm±30 and 410 nm±80; PerkinElmer).
(§3) The ability of Example compound 56 to inhibit RAS-effector PPI using the above cell-based RAS-effector BRET2 assay was investigated. […] We determined the effect of compound 56 (labelled Abd-7) on the interaction of KRAS^G12D and with PI3Kα and PI3Kγ, CRAF RAS-binding domain (RBD) and RALGDS RAS-associating domain (RA) compared with the low affinity Reference Compound Abd-2 FIG. 1a). […]

[3] = molecular target: T2, NRASQ61H interaction with PI3K, CRAF, RALGDS (Homo sapiens, UniProt P01111, Q61H); assay: BRET2 cell assay, NRAS Q61H-effector interaction; conditions: HEK293T cells, 5, 10 and 20 μM, 20 h
T2 construct: expressed in transfected cells; host or cells: HEK293T
Description: as §1
(§4) HEK293T cells were transfected 24 hr with plasmids expressing the NRAS Q61H […] and HRAS G12V (B, D) biosensors together with the indicated RBDs of PI3K, CRAF and RALGDS (A, B) or full-length CRAF. […]
as §2, with “plate.” for “plate. 24 hours later, cells were transfected with an appropriated BRET-based RAS biosensor (i.e. RAS-effector) using Lipofectamine 2000 transfection reagent (Thermo-Fisher).”
as §3

[4] = molecular target: T3, HRASG12V interaction with PI3K, CRAF, RALGDS (Homo sapiens, UniProt P01112, G12V); assay: BRET2 cell assay, HRAS G12V-effector interaction; conditions: HEK293T cells, 5, 10 and 20 μM, 20 h
T3 construct: expressed in transfected cells; host or cells: HEK293T
Description: as §1, §4
as §2, with “plate.” for “plate. 24 hours later, cells were transfected with an appropriated BRET-based RAS biosensor (i.e. RAS-effector) using Lipofectamine 2000 transfection reagent (Thermo-Fisher).”
as §3

SMILES | IC50 [1] | Effect on BRET signal, KRAS G12D/effector interactions [2] | Effect on BRET signal, NRAS Q61H/effector interactions [3] | Effect on BRET signal, HRAS G12V/effector interactions [4] | Effect on BRET signal, KRAS G12D/effector interactions ([2]; formate salt) | Effect on BRET signal, NRAS Q61H/effector interactions ([3]; formate salt) | Effect on BRET signal, HRAS G12V/effector interactions ([4]; formate salt)
COc1nc(-c2cccc3c2OCCO3)ccc1Nc1ccc(CN(C)C)cc1 [compound 56, [6-(2,3-Dihydro-benzo[1,4]dioxin-5-yl)-2-methoxy-pyridin-3-yl]-(4-dimethylaminomethyl-phenyl)-amine] | 8 µM | reduces the BRET signal | interferes with all mutant RAS family member PPIs | interferes with all mutant RAS family member PPIs |  |  | 
COc1cc(-c2cccc3c2OCCO3)ccc1Nc1cccc(CN(C)C)c1.O=CO [compound 72, [4-(2,3-Dihydro-benzo[1,4]dioxin-5-yl)-2-methoxy-phenyl]-(3-dimethylaminomethyl-phenyl)-amine formate salt] | 15.4 µM |  |  |  | decreases KRAS G12D/effector domain interactions in a dose-dependent manner; also recorded: dose response reduction in BRET signal | inhibits; also recorded: disturbs the BRET2 signal in dose response manner | inhibits; also recorded: disturbs the BRET2 signal in dose response manner
